System in one test: not listed separately
The test is described as follows: microbe, parasite or virus in culture. Particulars: Mycobacterium tuberculosis, 72 h, read-out: pIC50 (converted).
Regarding `Cc1nc(CN2CCCC(CCc3cccc(C(F)(F)F)c3)C2)co1` (configuration not stated), the IC50 is 33.3 µM. Still for that read-out and setting: for `CC(C)CN1C[C@H]2CCN(C(=O)C3CCCO3)CC[C@H]2S1(=O)=O` (some centres not stated) the value was greater than 50.1 µM.

In the next test the target is ClpP1P2 (Mycobacterium tuberculosis (strain ATCC 25618 / H37Rv), UniProt P9WPC3+P9WPC5). Put plainly: in vitro assay to detect presence of AMC directly proportional to the activity of ClpP1P2. GHDDI collaboration.
Chain of ClpP1P2 (P9WPC5 whole entry): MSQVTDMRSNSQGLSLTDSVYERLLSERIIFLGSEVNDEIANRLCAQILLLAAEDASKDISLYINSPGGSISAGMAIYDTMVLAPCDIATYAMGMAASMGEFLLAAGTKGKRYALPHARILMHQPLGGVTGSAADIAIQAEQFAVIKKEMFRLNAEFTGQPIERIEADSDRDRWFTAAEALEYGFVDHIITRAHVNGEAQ
Chain of ClpP1P2 (P9WPC3 whole entry): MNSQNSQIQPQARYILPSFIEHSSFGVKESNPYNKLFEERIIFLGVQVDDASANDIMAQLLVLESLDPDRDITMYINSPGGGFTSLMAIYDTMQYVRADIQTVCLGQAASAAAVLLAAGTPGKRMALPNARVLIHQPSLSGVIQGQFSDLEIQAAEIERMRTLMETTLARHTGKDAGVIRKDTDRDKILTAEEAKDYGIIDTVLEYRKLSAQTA
Conditions: not given
It is filed as functional.
Consider `N#Cc1cc2c(=O)n(CC(O)C(F)(F)F)ccc2[nH]c1=O` (configuration not stated), for which the IC50 is greater than 100 µM.

As for `CCC(Cn1ccc2[nH]c(=O)c(C#N)cc2c1=O)OC` (configuration not stated), the IC50 was greater than 100 µM. Consider `CC(O)CCn1ccc2[nH]c(=O)c(C#N)cc2c1=O` (configuration not stated), for which the IC50 is greater than 100 µM.

The subject of a further test is Plasmodium falciparum. The test is described as follows: Calibr Malaria Delayed Death Assay SOP.
Conditions: not given
The class given is functional, organism-based.
Consider `Fc1ccc(C2(CNC3=NCCN3)CCCC2)cc1.I`, for which the negative-log IC50 (pIC50) came to 6.191.

The test is the same for the next values; noted with them: Plasmodium falciparum.
In turn, `Fc1ccc(C2(CNC3=NCCN3)CCCC2)cc1.I` gave an IC50 of 0.629 µM.

In another test the target is Lysine--tRNA ligase (Plasmodium falciparum (isolate 3D7), UniProt Q8IDJ8). The test is described as follows: Pf-KRS-1 (Lysyl-RNA Synthetase-1, KRS-1, cytosolic KRS) from Plasmodium falciparum. Inhibitor assay, 384 well plate, luminescence read. It is filed as functional.
Chain of Lysine--tRNA ligase (Q8IDJ8 whole entry): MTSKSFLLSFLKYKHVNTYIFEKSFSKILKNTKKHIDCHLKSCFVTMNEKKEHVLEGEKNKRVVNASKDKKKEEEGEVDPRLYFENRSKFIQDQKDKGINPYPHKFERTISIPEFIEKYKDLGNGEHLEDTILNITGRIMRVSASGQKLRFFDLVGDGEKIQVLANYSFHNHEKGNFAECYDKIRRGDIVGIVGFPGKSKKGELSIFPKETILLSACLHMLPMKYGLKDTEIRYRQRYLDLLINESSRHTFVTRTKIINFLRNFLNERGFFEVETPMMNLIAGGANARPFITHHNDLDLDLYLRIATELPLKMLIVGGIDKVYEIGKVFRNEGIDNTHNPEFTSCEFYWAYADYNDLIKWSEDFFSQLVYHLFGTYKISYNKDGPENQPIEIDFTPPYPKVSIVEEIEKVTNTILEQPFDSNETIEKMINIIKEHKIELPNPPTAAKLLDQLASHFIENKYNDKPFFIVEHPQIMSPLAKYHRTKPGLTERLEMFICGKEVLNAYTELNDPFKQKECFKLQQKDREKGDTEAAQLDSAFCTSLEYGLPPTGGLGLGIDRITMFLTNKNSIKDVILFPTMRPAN
Conditions: not given
`Cc1nc(CN2CCCC(CCc3cccc(C(F)(F)F)c3)C2)co1` (configuration not stated) gave an IC50 greater than 50.1 µM. The same measure, in the same setting: for `N#Cc1cc2c(=O)n(CC(O)C(F)(F)F)ccc2[nH]c1=O` (configuration not stated) the value was greater than 50.1 µM; for `CCC(Cn1ccc2[nH]c(=O)c(C#N)cc2c1=O)OC` (configuration not stated), greater than 50.1 µM.

Take `CC(C)CN1C[C@H]2CCN(C(=O)C3CCCO3)CC[C@H]2S1(=O)=O` (some centres not stated): the IC50 was greater than 50.1 µM.

The compound `COCCN(Cc1ccc(F)cc1Cl)C(=O)c1ccc(=O)[nH]n1` showed an IC50 greater than 50.1 µM.

In the case of `CC(O)CCn1ccc2[nH]c(=O)c(C#N)cc2c1=O` (configuration not stated), the IC50 was greater than 50.1 µM. Still for that read-out and setting: for `CC(NC(=O)C1=NN(C)C(=O)CC1)c1ccc(Cl)cc1Cl` (configuration not stated) the value was greater than 50.1 µM; for `O=C1CC(c2ccc(C(=O)O)cc2)c2ncn(-c3cccc(F)c3)c2N1` (configuration not stated), greater than 50.1 µM. Compound `CCN(Cc1ccc2c(c1)OCO2)C(=O)NCc1nc(C)cs1` showed an IC50 greater than 50.1 µM. `CCc1nnsc1C(=O)N1CCCN(Cc2ccccc2)CC1` showed an IC50 greater than 50.1 µM. Still for that read-out and setting: for `Cc1cccc(OCCCNC(=O)NC(C)c2nncn2C)c1` (configuration not stated) the value was greater than 50.1 µM; for `COc1cc(CNCCn2ccnc2)cc2c1OCO2`, greater than 50.1 µM; for `COc1cc(OC)nc(N2CCC3(CC2)OCCCC3O)n1` (configuration not stated), greater than 50.1 µM. On the same count and under the same terms, for `Cc1nnc(NCCC(=O)NCc2ccccc2)c(C#N)c1C` the value was greater than 50.1 µM.

`Cc1csc(CNC(=O)N(C)Cc2ccc3c(c2)OCCO3)n1` had an IC50 greater than 50.1 µM.

`O=c1[nH]c2c(c(=O)n1C1CCCCC1)CCC2Nc1ccccn1` (configuration not stated) had an IC50 greater than 50.1 µM. Still for that read-out and setting: for `COc1ccc(/C=C/CN2C[C@H]3CC[C@@H]2CN(S(=O)(=O)N(C)C)C3)cc1` the value was greater than 50.1 µM; for `Cc1ccc([C@@H]2CN(C(=O)c3cc(C)no3)C[C@H]2NC(=O)C2CC2)cc1`, greater than 50.1 µM. On the same count and under the same terms, the same measure for `COCC1CN(C(=O)Cc2ccccn2)Cc2ncn(C)c21` (configuration not stated): greater than 50.1 µM. On the same count and under the same terms, the same measure for `c1cc(-c2cn[nH]c2)ncc1CN1CCCCC1`: greater than 50.1 µM; for `CCN1CC(C(=O)N2CCN(CCn3cccc3)CC2)CC1=O` (configuration not stated): greater than 50.1 µM.

Regarding `O=C1COc2cc(C(=O)NCc3ccc(Cl)s3)ccc2N1`, the IC50 was 17.5 µM. Turning to `Cc1ccc(CN2C[C@@H]3CN(CC4CCOCC4)CCO[C@@H]3C2)s1`, the IC50 was greater than 50.1 µM. The same measure, in the same setting: for `Cn1cc(NC(=O)c2ccccn2)cc(Br)c1=O` the value was greater than 50.1 µM; for `O=C(c1ccc2c(c1)CCCC2)N1CCCC(n2cncn2)C1` (configuration not stated), greater than 50.1 µM; for `Fc1ccc(C2(CNC3=NCCN3)CCCC2)cc1.I`, greater than 50.1 µM. Same read-out and setting: the same measure for `Cc1nc(CN(C)C2CCN(Cc3c(C)noc3C)C2)no1` (configuration not stated): greater than 50.1 µM. On the same count and under the same terms, for `CCCc1ccc(CN2CCN(c3ncccn3)[C@@H]3CS(=O)(=O)C[C@@H]32)o1` the value was greater than 50.1 µM. Compound `C/C=C(\C)CN1C[C@H](NC(=O)CCOC)[C@@H](c2ccc(C)o2)C1` showed an IC50 greater than 50.1 µM. In turn, `Cn1cnnc1C1CCCN(C(=O)c2ccc3c(c2)OCCO3)C1` (configuration not stated) showed an IC50 greater than 50.1 µM.

With `COCCOc1ccc(NC(=O)N2CCCC2c2cccs2)cn1` (configuration not stated), the IC50 was greater than 50.1 µM. Same read-out and setting: the same measure for `Cn1ncc2c(=O)[nH]c(CN3CCCC3c3cccs3)nc21` (configuration not stated): greater than 50.1 µM; for `Cc1nc(CCC(=O)N2Cc3cnc(-c4ccccc4)nc3C2)n[nH]1`: greater than 50.1 µM; for `c1ccc(CCN2CCCC(Cn3ccnc3)C2)cc1` (configuration not stated): greater than 50.1 µM. On the same count and under the same terms, the same measure for `FC(F)(F)COCCN1CCc2cncnc2C1`: greater than 50.1 µM. For `Cc1cc(C)n(C2CN(c3ncnc4[nH]ccc34)C2)n1`, the IC50 is greater than 50.1 µM. The same measure, in the same setting: the same measure for `Cc1nc(NC(=O)CN2CCOC(Cn3cccn3)C2)sc1C` (configuration not stated): greater than 50.1 µM. On the same count and under the same terms, the same measure for `FC(F)(F)CCc1ccnc(NC2CCOC2)n1` (configuration not stated): greater than 50.1 µM. On the same count and under the same terms, the same measure for `O=c1c(CN2CCOCC2)coc2ccc(Cl)cc12`: greater than 50.1 µM; for `CC(=O)N1CC(=O)N(c2ccsc2)CC12CCN(Cc1ccccn1)C2` (configuration not stated): greater than 50.1 µM. `CCc1n[nH]c(C2CN(Cc3nc(C4CC4)no3)CCO2)n1` (configuration not stated): the IC50 is greater than 50.1 µM.

The compound `CCCOc1ccc(CNC(=O)N2CCC(C(N)=O)C2)cc1` (configuration not stated) had an IC50 greater than 50.1 µM. Still for that read-out and setting: for `Cc1cnn(CCCN2C(=O)CCc3ccccc32)c1` the value was greater than 50.1 µM; for `CCn1cc2c(n1)C(COCC1CC1)CN(C(=O)c1cc(C)on1)C2` (configuration not stated), greater than 50.1 µM. On the same count and under the same terms, for `Cc1nc(N(C)CCCc2nccn2C)c2c(C)nn(C)c2n1` the value was greater than 50.1 µM; for `CN(C)CCNC(=O)c1ccc(S(=O)(=O)N[C@@H]2CCNC2)cc1`, greater than 50.1 µM.

Compound `CC(C)CN1C(=O)C2(CCCC2)NC1c1cn(C)c(=O)n(C)c1=O` (configuration not stated) gave an IC50 greater than 50.1 µM. Same read-out and setting: the same measure for `COCCOc1ccccc1C(=O)N(C)Cc1ncc(C)c(OC)c1C`: greater than 50.1 µM; for `Cc1cc(C)c2nc(CN[C@H]3CCCNC3)cc(O)c2c1`: greater than 50.1 µM. On the same count and under the same terms, for `O=C(COCCc1ccccc1)N1CCCC(n2cccn2)C1` (configuration not stated) the value was greater than 50.1 µM; for `Cc1cccc(NC2CCc3c2[nH]c(=O)n(C2CCCCC2)c3=O)c1C` (configuration not stated), 2.45 µM. For `COCCN1CCOCC12CCN(c1ccc(C#N)cc1)CC2`, the IC50 is greater than 50.1 µM. Same read-out and setting: for `O=C(O)c1cc(-c2cc[nH]n2)cc(S(=O)(=O)N2CCCCCC2)c1` the value was greater than 50.1 µM; for `CCCn1ccnc1CN1CCC(Oc2ccc(Cl)cc2)(C(=O)O)CC1`, greater than 50.1 µM; for `O=C(NCc1csc(Br)c1)c1cnccn1`, greater than 50.1 µM. The compound `CNc1ncc2c(n1)CN(C1CCCC1)C2=O` showed an IC50 greater than 50.1 µM. Same read-out and setting: the same measure for `O=C(NCCc1ccccn1)C1=NN(c2ccccc2)C(=O)CN1`: greater than 50.1 µM; for `O=C(CCNC(=O)c1ccoc1)Nc1cc(F)ccc1F`: greater than 50.1 µM; for `Cc1ccn2ncc(C(=O)N3CCCC(n4nc(C)nc4C)C3)c2n1` (configuration not stated): greater than 50.1 µM.

Take `CC(O)(CNc1ccc(Cl)c(C#N)n1)c1ccsc1` (configuration not stated): the IC50 is 44 µM. The compound `CCc1cc2cc(OC)c(OC)cc2nc1SCCN1CCCCC1` had an IC50 greater than 50.1 µM. `Cc1nc(NC(C)C)nc2c1CN(Cc1nccn1C)CC2` showed an IC50 greater than 50.1 µM. Compound `COc1ccc(C2CCCN2C(=O)Nc2ccc(OC)nc2)cc1` (configuration not stated) gave an IC50 greater than 50.1 µM. Still for that read-out and setting: the same measure for `Cc1nc[nH]c1CN1CCn2nc(CN3CC[C@H](F)C3)cc2C1`: greater than 50.1 µM; for `c1cnnc(N2CCCC(NCc3ccncc3)C2)c1` (configuration not stated): greater than 50.1 µM; for `Cn1cc(C(C)(O)CNc2ccc(Cl)c(C#N)n2)cn1` (configuration not stated): greater than 50.1 µM. Still for that read-out and setting: for `Cc1cc(NC(=O)CCCn2ccnc2C)nc(C(C)C)n1` the value was greater than 50.1 µM; for `Cc1noc(C)c1CN1CC[C@H]2[C@H]1CCN2CC1CCOCC1`, greater than 50.1 µM; for `CSc1ncnc(NCc2cccs2)c1C#N`, greater than 50.1 µM. Same read-out and setting: for `Cc1cc(C)c2nc(CNC3CCCNC3=O)cc(O)c2c1` (configuration not stated) the value was greater than 50.1 µM; for `CCOc1cccc2c1OCC(C(=O)NS(=O)(=O)Cc1ccccc1)=C2`, greater than 50.1 µM.

Another test concerns Schistosoma mansoni. Put plainly: High throughput screening of compounds against Schistosoma mansoni motility.
Conditions: not given
Also on record: dose or concentration left out as unconfirmed. The class given is functional.
Take `COCCN(Cc1ccc(F)cc1Cl)C(=O)c1ccc(=O)[nH]n1`: the “Percent Effect” value is -14.07%. Still for that read-out and setting: the same measure for `CC(NC(=O)C1=NN(C)C(=O)CC1)c1ccc(Cl)cc1Cl` (configuration not stated): -38.06%.

System in another test: not listed separately
The test is described as follows: microbe, parasite or virus in culture. The following applies: Mycobacterium tuberculosis, 96 h, read-out: pIC50 (converted).
`Cc1nc(CN2CCCC(CCc3cccc(C(F)(F)F)c3)C2)co1` (configuration not stated): the IC50 was 41.8 µM. On the same count and under the same terms, for `CC(C)CN1C[C@H]2CCN(C(=O)C3CCCO3)CC[C@H]2S1(=O)=O` (some centres not stated) the value was greater than 50.1 µM.

Values taken from ChEMBL document CHEMBL3988442, “University of Dundee, Small-Polar-MMV Screening Library” (2021).
